Legend:
Format in all cases: functional
[1] = molecular target: T1, 5-hydroxytryptamine receptor 1A (Homo sapiens) (UniProt P08908); assay: Agonist activity at recombinant human 5-HT1A assessed as induction of cAMP levels at 10 uM by HTRF assay relative to agonist
T1 sequence (whole entry): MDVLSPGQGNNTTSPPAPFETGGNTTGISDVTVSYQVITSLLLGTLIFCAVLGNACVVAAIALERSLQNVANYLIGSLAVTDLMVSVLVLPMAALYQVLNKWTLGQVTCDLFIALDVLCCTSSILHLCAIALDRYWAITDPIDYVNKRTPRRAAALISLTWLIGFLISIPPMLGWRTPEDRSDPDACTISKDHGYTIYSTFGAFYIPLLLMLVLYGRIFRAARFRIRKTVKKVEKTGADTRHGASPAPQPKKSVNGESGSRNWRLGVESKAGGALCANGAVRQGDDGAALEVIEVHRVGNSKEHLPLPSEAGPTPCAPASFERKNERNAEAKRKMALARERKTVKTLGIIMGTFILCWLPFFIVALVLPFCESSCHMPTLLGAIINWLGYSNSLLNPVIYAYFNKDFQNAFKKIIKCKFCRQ

[2] = molecular target: T2, Adenosine receptor A3 (Homo sapiens) (UniProt P0DMS8); assay: Agonist activity at recombinant human adenosine A3 receptor […] at 10 uM by HTRF assay relative to agonist
T2 sequence (whole entry): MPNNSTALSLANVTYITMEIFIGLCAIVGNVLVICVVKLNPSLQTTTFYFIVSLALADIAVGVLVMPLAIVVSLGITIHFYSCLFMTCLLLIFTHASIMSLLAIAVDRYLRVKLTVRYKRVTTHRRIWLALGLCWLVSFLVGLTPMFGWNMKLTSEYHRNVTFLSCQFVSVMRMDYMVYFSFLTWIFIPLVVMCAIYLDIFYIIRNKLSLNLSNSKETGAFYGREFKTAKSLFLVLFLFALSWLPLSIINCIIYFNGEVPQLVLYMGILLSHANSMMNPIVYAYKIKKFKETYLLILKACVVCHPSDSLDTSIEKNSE

[3] = molecular target: Beta-2 adrenergic receptor (Homo sapiens) (UniProt P07550); assay: Agonist activity at recombinant human beta-2 adrenergic receptor assessed as induction of cAMP levels at 10 uM by HTRF assay relative to agonist
[4] = molecular target: T3, Alpha-1B adrenergic receptor (Homo sapiens) (UniProt P35368); assay: Agonist activity at recombinant human alpha-1b adrenergic receptor […] at 10 uM by aequorin reporter based assay relative to agonist
T3 sequence (whole entry): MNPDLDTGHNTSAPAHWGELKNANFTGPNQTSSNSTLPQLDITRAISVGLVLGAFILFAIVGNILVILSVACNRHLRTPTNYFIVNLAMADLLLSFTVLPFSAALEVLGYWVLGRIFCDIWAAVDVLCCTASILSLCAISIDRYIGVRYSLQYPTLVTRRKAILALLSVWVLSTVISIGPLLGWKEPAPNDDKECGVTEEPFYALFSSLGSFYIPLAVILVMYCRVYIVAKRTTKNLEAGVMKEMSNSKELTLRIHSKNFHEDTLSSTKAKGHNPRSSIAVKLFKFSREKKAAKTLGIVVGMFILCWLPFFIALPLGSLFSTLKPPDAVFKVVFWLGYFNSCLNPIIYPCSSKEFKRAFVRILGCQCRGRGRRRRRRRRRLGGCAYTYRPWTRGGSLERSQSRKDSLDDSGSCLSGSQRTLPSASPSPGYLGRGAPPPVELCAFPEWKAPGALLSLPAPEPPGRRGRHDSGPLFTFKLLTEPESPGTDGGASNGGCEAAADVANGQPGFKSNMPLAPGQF

[5] = molecular target: T4, Alpha-2A adrenergic receptor (Homo sapiens) (UniProt P08913); assay: Antagonist activity at recombinant human alpha-2a adrenergic receptor assessed as inhibition of agonist-induced effect at 10 uM by GTPgamma[35S] binding-based assay
T4 sequence (whole entry): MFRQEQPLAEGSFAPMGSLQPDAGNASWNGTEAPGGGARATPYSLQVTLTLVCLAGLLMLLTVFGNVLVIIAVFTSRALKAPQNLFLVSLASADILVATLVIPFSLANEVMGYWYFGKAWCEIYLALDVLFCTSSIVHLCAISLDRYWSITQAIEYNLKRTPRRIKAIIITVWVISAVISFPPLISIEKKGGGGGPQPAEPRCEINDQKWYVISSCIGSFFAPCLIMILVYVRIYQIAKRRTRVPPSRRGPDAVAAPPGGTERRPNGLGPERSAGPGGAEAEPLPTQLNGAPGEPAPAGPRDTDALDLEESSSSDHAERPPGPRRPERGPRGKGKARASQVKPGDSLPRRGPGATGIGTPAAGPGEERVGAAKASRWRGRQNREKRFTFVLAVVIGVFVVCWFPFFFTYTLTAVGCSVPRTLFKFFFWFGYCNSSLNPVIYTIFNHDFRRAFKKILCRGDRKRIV

[6] = molecular target: T5, Muscarinic acetylcholine receptor M4 (Homo sapiens) (UniProt P08173); assay: Agonist activity at recombinant human muscarinic M4 receptor at 10 uM by GTPgamma[35S] binding-based assay relative to agonist
T5 sequence (whole entry): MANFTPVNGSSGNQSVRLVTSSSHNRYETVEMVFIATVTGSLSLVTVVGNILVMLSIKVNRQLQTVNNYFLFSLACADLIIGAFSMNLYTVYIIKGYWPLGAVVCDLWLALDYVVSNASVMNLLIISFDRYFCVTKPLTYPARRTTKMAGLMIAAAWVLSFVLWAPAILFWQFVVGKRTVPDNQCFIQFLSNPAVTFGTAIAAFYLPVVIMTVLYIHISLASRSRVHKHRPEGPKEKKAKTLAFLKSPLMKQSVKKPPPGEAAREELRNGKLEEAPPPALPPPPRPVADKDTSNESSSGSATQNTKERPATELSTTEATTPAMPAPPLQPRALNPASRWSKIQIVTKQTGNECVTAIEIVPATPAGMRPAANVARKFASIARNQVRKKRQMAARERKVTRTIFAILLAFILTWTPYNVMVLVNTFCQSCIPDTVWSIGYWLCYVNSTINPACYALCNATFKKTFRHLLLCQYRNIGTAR

[7] = molecular target: T6, Substance-K receptor (Homo sapiens) (UniProt P21452); assay: Agonist activity at recombinant human NK2R assessed at 10 uM by aequorin reporter based assay relative to agonist
T6 sequence (whole entry): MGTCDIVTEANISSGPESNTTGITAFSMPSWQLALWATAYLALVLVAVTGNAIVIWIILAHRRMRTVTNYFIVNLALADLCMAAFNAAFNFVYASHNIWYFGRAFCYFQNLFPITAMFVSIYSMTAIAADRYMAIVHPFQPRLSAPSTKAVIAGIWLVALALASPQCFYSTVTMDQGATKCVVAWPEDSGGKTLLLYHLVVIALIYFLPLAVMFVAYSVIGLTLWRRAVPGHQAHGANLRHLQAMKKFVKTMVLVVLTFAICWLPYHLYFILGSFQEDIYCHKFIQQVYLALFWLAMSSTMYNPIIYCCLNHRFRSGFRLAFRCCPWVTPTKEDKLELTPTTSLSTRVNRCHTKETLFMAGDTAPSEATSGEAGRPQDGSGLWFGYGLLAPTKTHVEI

Beta-2 adrenergic receptor (Homo sapiens), sequence (P07550 whole entry, looked up): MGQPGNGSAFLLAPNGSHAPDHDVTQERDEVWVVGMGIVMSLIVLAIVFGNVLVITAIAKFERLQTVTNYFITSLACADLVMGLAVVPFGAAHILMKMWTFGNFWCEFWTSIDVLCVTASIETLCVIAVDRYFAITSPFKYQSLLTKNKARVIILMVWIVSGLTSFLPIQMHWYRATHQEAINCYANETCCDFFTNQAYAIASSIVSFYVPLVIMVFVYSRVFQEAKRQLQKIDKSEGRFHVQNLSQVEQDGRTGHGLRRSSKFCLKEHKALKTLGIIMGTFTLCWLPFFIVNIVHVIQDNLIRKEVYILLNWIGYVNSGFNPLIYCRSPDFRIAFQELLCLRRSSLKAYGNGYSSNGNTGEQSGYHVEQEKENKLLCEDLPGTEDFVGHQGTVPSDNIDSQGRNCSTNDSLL

| Structure (SMILES) | Activity [1] | Activity [2] | Activity [3] | Activity [4] | inhibition [5] | Activity [6] | Activity [7] |
| --- | --- | --- | --- | --- | --- | --- | --- |
| CN(CCCNC(=O)c1ccc([N+](=O)[O-])cc1)Cc1ccccc1 | -1% | -1% | -2% | -1% | 25% | -5% | 0% |
| CN(CCNC(=O)c1ccc([N+](=O)[O-])cc1)Cc1ccccc1 | 4% | -1% | 3% | 0% | 32% | 0% | 0% |
| CN(CCNC(=O)c1ccc(C#N)cc1)Cc1ccccc1 | 4% | 0% | 0% | 0% | 19% | -1% | 0% |
| CN(CCCNC(=O)c1ccc(Cl)cc1)CCc1ccccc1 | 32% | -6% | 2% | 0% | 105% | -8% | 0% |
| CN(CCCNC(=O)c1ccc(C(F)(F)F)cc1)Cc1ccccc1 | -5% | 7% | 1% | -1% | 49% | -4% | 0% |
| CN(CCNC(=O)c1ccc(Cl)cc1)Cc1ccccc1 | 3% | -2% | 0% | -1% | 45% | -4% | 1% |

Results, then the compound that gave them:

| Activity [1] | Activity [2] | Activity [3] | Activity [4] | inhibition [5] | Activity [6] | Activity [7] | Structure (SMILES) |
| --- | --- | --- | --- | --- | --- | --- | --- |
| 0% | -3% | 8% | 0% | 20% | -2% | 0% | COc1cccc(C(=O)NCCCN(C)Cc2ccccc2)c1 |
| -4% | -3% | 1% | -1% | 57% | -12% | 1% | CN(CCCNC(=O)c1cccc(Br)c1)Cc1ccccc1 |
| 0% | -6% | 2% | 0% | 42% | -10% | 0% | CN(CCCNC(=O)c1ccc(Br)cc1)Cc1ccccc1 |
| 3% | -4% | 1% | 0% | 50% | -8% | 0% | CN(CCCNC(=O)c1ccc(Cl)cc1)Cc1ccccc1 |
| -2% | -5% | 8% | 0% | 23% | -1% | 0% | COc1ccc(C(=O)NCCCN(C)Cc2ccccc2)cc1 |
| -4% | 3% | 6% | -1% | 37% | -10% | 0% | CCCc1ccc(C(=O)NCCCN(C)Cc2ccccc2)cc1 |

Reference: ChEMBL document CHEMBL4130363, “Synthesis and pharmacological evaluation of benzamide derivatives as potent and selective sigma-1 protein ligands” (Eur J Med Chem, 2017)
